Reference: patent US20130165398A1, “CONCENTRATION-ENHANCING DRINK” (priority 2010, published 2013)
Values joined by “and” are separate entries in the source; they are usually repeats but may differ in a detail not shown here. Equal values may be shown once. “Also recorded” adds a separate entry of the source.

What was measured:
HeLa S3 cells [1] = experiment: Cell viability by MTT assay, HeLa S3 cells; type: cell-based, human; conditions: for cell survival with substance as extracellular precursor: FK866, FIG. 3B
Protocol: (§4) Inhibitors (2 μm FK866, 2 mM 3-AB, 10 μm NBTI, 2 μm dipyridamol, 2 mM CMP, 25 μm PPADS, 1 mM Ap4A) or metabolites (100 μM NAD^+, 100 μM NAAD, 100 μM NMN, 100 μM NAMN, 100 μM NA, 100 μM NR) were added to the cell culture medium as stated. […] The treatment with inhibitors and metabolites was carried out for 24-48 h before analysis of PAR formation and the viability of the cells (72 h for 293mitoPARP cells, 96 h for HeLa S3 cells and 120 h for HepG2 cells). The viability of the cells was determined by MTT assay.

293mitoPARP cells [2] = experiment: Cell viability by MTT assay, 293mitoPARP cells; type: cell-based, human; conditions: for cell survival with substance as extracellular precursor: NamPRT inhibited by FK866, FIG. 3A
Protocol: as §4

NMNAT1 = experiment: Expression of NMNAT1 after adding EGCG to human cells; type: cell-based; conditions: EGCG added to human cells
[3] = Triple test method: biomedical test battery (breathing rate, skin conductance level, heart rate), index of physiological/mental stress; type: in vivo, human
Protocol: (§1) Hereinafter the present invention is tested in the context of the Viewpointsystem® vision analyses, using standardized methods of investigation of the Vienna test system and using biomedical studies for stress research. In this method, in the vision laboratory, the triple test method is used with extremely high accuracy for evaluating psychophysical effects up to the degree of attention (cf. EP 1 300 108 A1, WO 2008/151346 A1).
(§2) 12 subjects were subdivided into 3 groups each of 4 subjects:
(§3) (1) drink according to the invention (150 mg of EGCG/20 mg of NR in 10 ml of H2O; “energy” or “energy-drink” group (2) EGCG alone (150 mg of EGCG; “green tea” group) (3) placebo (H2O and mannitol; “placebo” group)
The subjects were then studied systematically with respect to possible effects using the triple test study method, that is vps vision analyses—Vienna test system—biomedical test battery, in a standardized study, in such a manner that objective, statistically significant statements were made possible on the detection of concentration-enhancing activity of the drink according to the invention.
In parallel thereto, the relevant biomedical characteristics such as skin conductivity, pulse were also detected and evaluated. In total, therefore, in the course of the triple-test studies, for all action-relevant evaluation situations, gaze studies were carried out in the gaze laboratory, the gaze behavior and reaction times were analyzed. The effects on information uptake, including information stress and fatigue, were documented using the standardized gaze methods by raster-analysis programs.
After a baseline measurement, the study follows, wherein, inter alia, the following values are recorded: • heart frequency (HF: number of heart beats/minute) • blood volume pulse (BVP: measure of amount of blood which is pumped through the body per heart beat) • skin conductance value (SCL: skin conductance level/conductivity level, tonic measure, SCR: skin conductance response/phasic measure; reaction to individual stimuli)
In the detailed analyses, at the same time the gaze and biomedical data of the study sequences [reaction test (singular stimuli), determination test (multiple optical, acoustic stimuli), film viewing (real sequences from driver viewpoint and film trailers) and semiotics (animal pictures and logos)] were evaluated. Particular attention was paid to the skin conductance level (SCL), the heart rate (pulse; HR) and the breathing rate (AF).
After the physiological parameters were determined, for each section the statistical parameters mean/standard deviation/min/max/range/85% percentile were determined. In addition, the trend line equations were calculated.
For further statistical detailed evaluation, the 85% percentile values were used and the relative differences were compiled using the before/after relationship. This change was totaled as a dimension number.
After categorization of the subjects into 3 comparison groups, the dimension numbers were summed and represent an index of the physiological/mental stress of the subjects. The lower the number, the “more relaxed” the solving of the tasks by the subjects.

[4] = Triple test method: synchronous gaze studies (Viewpointsystem vision analyses: gaze latencies, blinking, pupil adaptation); type: in vivo, human
Protocol: as §1, §2, §3
Using this test system, the changes in attention, vision behavior, reaction, activation and stress were determined in the three groups. In this process the real directions of gaze and gaze motions of subjects were determined in the course of the Vienna test system—in the reaction and determination test, and also in considering defined situation sequences (standardized preset image and film sequences with events) and for selected specific suitability tests—filmed and recorded from the respective field of view (cf. EP 1 300 108 A1, WO 2008/151346 A1). […]

293mitoPARP cells [5] = experiment: Mitochondrial NAD+ content by mitoPARP PAR formation, 293mitoPARP cells; type: cell-based, human; conditions: NamPRT inhibited by FK866, FIG. 3A
Protocol: (§5) Inhibitors (2 μm FK866, 2 mM 3-AB, 10 μm NBTI, 2 μm dipyridamol, 2 mM CMP, 25 μm PPADS, 1 mM Ap4A) or metabolites (100 μM NAD^+, 100 μM NAAD, 100 μM NMN, 100 μM NAMN, 100 μM NA, 100 μM NR) were added to the cell culture medium as stated. […] The treatment with inhibitors and metabolites was carried out for 24-48 h before analysis of PAR formation and the viability of the cells (72 h for 293mitoPARP cells, 96 h for HeLa S3 cells and 120 h for HepG2 cells). The viability of the cells was determined by MTT assay. 293mitoPARP cells were prepared that express a fusion protein (“mitoPARP”), consisting of EGFP and PARP1cd (poly-ADP-ribose polymerase-1) which was targeted to the mitochondrial matrix. With mitochondrial NAD^+ as substrate, these cells generate protein-bound PAR (protein-bound poly-ADP ribose) constitutively, which is visualized immunochemically. Variations in the extent of the PAR detected thereby reflect changes in the mitochondrial NAD^+ content. Likewise, the transient expression of mitoPARP in HepG2 and HeLa S3 cells was used.

HepG2 cells = conditions: FK866, FIG. 3C
Protocol: Inhibitors (2 μm FK866, 2 mM 3-AB, 10 μm NBTI, 2 μm dipyridamol, 2 mM CMP, 25 μm PPADS, 1 mM Ap4A) or metabolites (100 μM NAD^+, 100 μM NAAD, 100 μM NMN, 100 μM NAMN, 100 μM NA, 100 μM NR) were added to the cell culture medium as stated. NR was prepared as described (Dölle et al., Anal, Biochem. 385 (2009), 377-379). The treatment with inhibitors and metabolites was carried out for 24-48 h before analysis of PAR formation and the viability of the cells (72 h for 293mitoPARP cells, 96 h for HeLa S3 cells and 120 h for HepG2 cells). The viability of the cells was determined by MTT assay.

mitochondrial NAD^+ = experiment: Mitochondrial NAD+ content by mitoPARP PAR formation, cell line not stated; type: cell-based, human; conditions: for mitochondrial PAR formation from the extracellular precursor on overexpression of NRK1: FIG. 6; for effect of the inhibitor on NR usage: NR as extracellular precursor, FIG. 4B; for function of NMN as extracellular NAD+ precursor in presence of the inhibitor: plasma membrane nucleoside transporter inhibitor added
HeLa S3 cells [6] = experiment: Mitochondrial NAD+ content by mitoPARP PAR formation, HeLa S3 cells; type: cell-based, human; conditions: FK866, FIG. 3B
Protocol: as §5

human cells = experiment: Cell viability by MTT assay, cell line not stated; type: cell-based; conditions: NPP inhibitor added
[7] = CMP competes with NMN for external 5'-nucleotidase
[8] = semiotics (animal pictures and logos), group sum

With Nc1ccn([C@@H]2O[C@H](COP(=O)(O)O)[C@@H](O)[C@H]2O)c(=O)n1 [CMP] the “cell viability with NMN as precursor on addition of CMP” value (HeLa S3 cells [1]; [7]) was “decreases the cell viability” and the “cell viability with NMN as precursor on addition of CMP” value (293mitoPARP cells [2]; [7]) was “decreases the cell viability”.

For O=C(O[C@@H]1Cc2c(O)cc(O)cc2O[C@@H]1c1cc(O)c(O)c(O)c1)c1cc(O)c(O)c(O)c1 [EGCG, (2R,3R)-2-(3,4,5-trihydroxyphenyl)-3,4-dihydro-1(2H)-benzopyran-3,5,7-triol 3-(3,4,5-trihydroxybenzoate)], the “increase of expression of NMNAT1” value (NMNAT1) was 40%, the “AF (breathing rate) dimension number, Total” value ([3]; RT+DT+Film+Animals, group sum) was 14.21 and the “HR (heart rate) dimension number, Total” value ([3]; RT+DT+Film+Animals, group sum) was 13.90. The “SCL (skin conductance level) dimension number, Total” value ([3]; RT+DT+Film+Animals, group sum) was 17.79, the “dimension number TOTAL” value ([3]; T1+T2, individual subject, lower = more relaxed, listed as Green tea group) was 10.25 and 12.53 and 12.39 and 10.78 and the “dimension number TOTAL, group Mean” value ([3]; T1+T2, mean of 4 subjects) was 11.49. For the same compound, the “dimension number TOTAL, group Total” value ([3]; T1+T2, sum of 4 subjects) was 45.95, the “dimension number T1” value ([3]; T1: Vienna test system: reaction test/determination test, individual subject, summed relative before/after differences of 85% percentile values, lower = more relaxed, listed as Green tea group) was 4.81 and 5.51 and 6.86 and 5.11 and the “dimension number T1, group Mean” value ([3]; T1: reaction test/determination test, mean of 4 subjects) was 5.57. The “dimension number T1, group Total” value ([3]; T1: reaction test/determination test, sum of 4 subjects) was 22.29, the “dimension number T2” value ([3]; T2: Viewing film sequences/trailers/logos/animals, individual subject, lower = more relaxed, listed as Green tea group) was 5.45 and 7.02 and 5.53 and 5.67 and the “dimension number T2, group Mean” value ([3]; T2: film sequences/trailers/logos/animals, mean of 4 subjects) was 5.92. For the same compound, the “dimension number T2, group Total” value ([3]; T2: film sequences/trailers/logos/animals, sum of 4 subjects) was 23.67, the “HR (heart rate) dimension number, DT” value ([3]; determination test, group sum) was 3.44 and the “SCL (skin conductance level) dimension number, DT” value ([3]; determination test, group sum) was 4.17. For the same compound, the “AF (breathing rate) dimension number, DT” value ([3]; determination test, group sum, listed as Group 3) was 3.63 and 3.67, the “AF (breathing rate) dimension number, Film” value ([3]; film viewing, group sum) was 3.90 and the “HR (heart rate) dimension number, Film” value ([3]; film viewing, group sum) was 3.61. For the same compound, the “SCL (skin conductance level) dimension number, Film” value ([3]; film viewing, group sum) was 4.90, the “AF (breathing rate) dimension number, RT” value ([3]; reaction test, group sum) was 3.58 and the “HR (heart rate) dimension number, RT” value ([3]; reaction test, group sum) was 3.42. The “SCL (skin conductance level) dimension number, RT” value ([3]; reaction test, group sum) was 4.05, the “AF (breathing rate) dimension number, Animals” value [3, 8] was 3.10 and the “HR (heart rate) dimension number, Animals” value [3, 8] was 3.49. For the same compound, the “SCL (skin conductance level) dimension number, Animals” value [3, 8] was 4.67, the “performance ability for the problem solutions (ability to be stressed)” value ([3]; sum parameters, tendency, especially in the active test sequences) was “higher performance ability” and the number of blinks ([4]; all test methods, compared with Energy group) was “markedly lower”. For the same compound, the “enhancement of gaze latencies in the after state” value ([4]; real film sequences, before/after) was “low enhancements”.

With O=C(/C=C/c1cccnc1)NCCCCC1CCN(C(=O)c2ccccc2)CC1 [FK866] the “effect of FK866 on cell viability” value (HeLa S3 cells [1]; FIG. 3B) was “cell death” and the “effect of FK866 on cell viability” value (293mitoPARP cells [2]; FIG. 3A) was “cell death”.

In the case of O=C(O)c1cccnc1 [NA, nicotinic acid], the “mitochondrial NAD+ content/formation with substance as extracellular precursor” value (shortened to “mitochondrial NAD+ content/formation”) (293mitoPARP cells [5]) is reported as “able to restore”, the “cell survival with substance as extracellular precursor” value (from here on “cell survival with substance”) (HeLa S3 cells [1]) is reported as “restoration of survival” and the “cell survival with substance” value (293mitoPARP cells [2]) is reported as “able to restore”. For the same compound, the “generation of mitochondrial NAD+ with substance as extracellular precursor” value (HepG2 cells) was “not able to provide support” and the “survival/viability of the cell with substance as extracellular precursor” value (HepG2 cells) was “not able to provide support”.

In the case of NC(=O)c1ccc[n+]([C@@H]2O[C@H](COP(=O)([O-])OP(=O)(O)OC[C@H]3O[C@@H](n4cnc5c(N)ncnc54)[C@H](O)[C@@H]3O)[C@@H](O)[C@H]2O)c1 [NAD^+, nicotinamide adenine dinucleotide], the “mitochondrial PAR formation from the extracellular precursor on overexpression of NRK1” value (mitochondrial NAD^+) is reported as “considerably improved”.

For O=C(O)c1ccc[n+]([C@@H]2O[C@H](COP(=O)(O)O)[C@@H](O)[C@H]2O)c1 [NAMN, nicotinic acid mononucleotide], the “mitochondrial NAD+ formation with substance as extracellular precursor” value (HeLa S3 cells [6]) was “support mitochondrial NAD^+ formation”, the “mitochondrial NAD+ content/formation” value (293mitoPARP cells [5]) was “able to restore; also recorded: support mitochondrial NAD^+ formation” and the “cell survival with substance” value (HeLa S3 cells [1]) was “restoration of survival; also recorded: protect”. The “mitochondrial NAD+ generation of NAMN in presence of dipyridamol and NBTI” value (mitochondrial NAD^+; compared with NMN, FIG. 4A) was “sensitive to these inhibitors, although less strongly” and the “cell survival with substance” value (293mitoPARP cells [2]) was “able to restore; also recorded: protect”.

For O=[N+]([O-])c1ccc(CSc2ncnc3c2ncn3[C@@H]2O[C@H](CO)[C@@H](O)[C@H]2O)cc1 [NBTI], the “effect of the inhibitor on NR usage” value (mitochondrial NAD^+) was “inhibit the NR usage” and the “function of NMN as extracellular NAD+ precursor in presence of the inhibitor” value (mitochondrial NAD^+; FIG. 4A) was “lost its function”.

For NC(=O)c1ccc[n+]([C@@H]2O[C@H](COP(=O)([O-])O)[C@@H](O)[C@H]2O)c1 [NMN, nicotinamide mononucleotide], the “mitochondrial NAD+ formation with substance as extracellular precursor” value (HeLa S3 cells [6]) was “support mitochondrial NAD^+ formation”, the “mitochondrial NAD+ content/formation” value (293mitoPARP cells [5]) was “able to restore; also recorded: support mitochondrial NAD^+ formation” and the “cell survival with substance” value (HeLa S3 cells [1]) was “restoration of survival; also recorded: protect”. The “mitochondrial PAR formation from the extracellular precursor on overexpression of NRK1” value (mitochondrial NAD^+) was “dramatic increase” and the “cell survival with substance” value (293mitoPARP cells [2]) was “able to restore; also recorded: protect”.

For Cc1nc(N=Nc2ccc(S(=O)(=O)O)cc2S(=O)(=O)O)c(COP(=O)(O)O)c(C=O)c1O [PPADS], the “survival of the cell with NAD+ as extracellular precursor” value (human cells) was “prevents the restoration” and the “restoration of the mitochondrial NAD+ pool with NAD+ as extracellular precursor” value (mitochondrial NAD^+; NPP inhibitor added, cell line not stated) was “prevents the restoration”.

In the case of OCCN(CCO)c1nc(N2CCCCC2)c2nc(N(CCO)CCO)nc(N3CCCCC3)c2n1 [dipyridamol], the “effect of the inhibitor on NR usage” value (mitochondrial NAD^+) is reported as “inhibit the NR usage” and the “function of NMN as extracellular NAD+ precursor in presence of the inhibitor” value (mitochondrial NAD^+; FIG. 4A) is reported as “lost its function”.
